Test systems include OVCAR-3; SW-620; SF-268; RPMI-8226; UACC-257; NCI-H460; OVCAR-4; MDA-MB-435; HCC 2998; T47D; SK-MEL-5; HOP-92; 786-0; HL-60; MCF7; LOX IMVI; SNB-19; CAKI-1; NCI-H522; SK-OV-3.
What all share (experiment): NCI tumour cell line growth inhibition, 48 h

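These data come from cells grown in 96-well plates and exposed to compound for 48 hours at five concentrations. GI50: concentration for 50% inhibition of growth.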 Active and inactive are the calls of the source. Cut-off read from the data, not from the text of the source: active = GI50 up to about 1.1 µM and inactive = higher.

As to `Cc1nc2c(o1)C(=O)c1ccccc1/C2=N/C1CCCCC1N` (stereo not given), the GI50 with OVCAR-3 was 0.249 µM (active); with SW-620 it was 0.418 µM (active); in the assay on SF-268, 1.09 µM (active); in the assay with RPMI-8226, 0.565 µM (active); with UACC-257, 0.144 µM (active); in the assay on NCI-H460, 1.61 µM (inactive). In addition, the GI50 is 0.308 µM (active) in the assay with OVCAR-4; 0.162 µM (active) in the assay with MDA-MB-435; 1.65 µM (inactive) with HCC 2998; 0.345 µM (active) with T47D; 0.11 µM (active) in the assay with SK-MEL-5; 0.483 µM (active) in the assay on HOP-92. Further, the GI50 with 786-0 is 1.77 µM (inactive); in the assay with HL-60 it was 0.2 µM (active); with MCF7, 0.265 µM (active); in the assay with LOX IMVI, 0.16 µM (active); with SNB-19 it was 0.787 µM (active); in the assay with CAKI-1, 1.71 µM (inactive). In addition, the GI50 in the assay on NCI-H522 is 1.06 µM (active).

For `Cc1cccc(NC(=O)CC(=O)N2N=C(N3c4ccccc4Sc4ccccc43)CC2c2ccccc2)c1` (stereo not given), the GI50 with OVCAR-3, with SW-620, in the assay on SF-268, in the assay on SK-OV-3, in the assay with RPMI-8226 and with UACC-257 was > 100 µM (inactive) in each case. In addition, the GI50 in the assay with NCI-H460, with OVCAR-4, in the assay with MDA-MB-435, in the assay on HCC 2998, in the assay with T47D and in the assay on SK-MEL-5 was > 100 µM (inactive) each time. Also, the GI50 in the assay on HOP-92, in the assay on 786-0, with HL-60, in the assay with MCF7, with SNB-19 and in the assay on NCI-H522 was > 100 µM (inactive) each time.

`CC(C)=CCC[C@@H](C)c1c2nc3ccccc3[nH]c-2c(C)c(=O)c1O`: the GI50 in the assay with OVCAR-3 was 0.363 µM (active); in the assay with SW-620, 3.13 µM (inactive); in the assay with SF-268, 0.906 µM (active); in the assay with SK-OV-3 it was 2.15 µM (inactive); in the assay on RPMI-8226, 8.73 µM (inactive); with UACC-257, 2.37 µM (inactive). Also, the GI50 in the assay with NCI-H460 is 0.671 µM (active); with OVCAR-4, 2.88 µM (inactive); with MDA-MB-435, 2.73 µM (inactive); with HCC 2998, 5.45 µM (inactive); in the assay on T47D, 1.91 µM (inactive); with SK-MEL-5, 1.63 µM (inactive). The GI50 was 1.41 µM (inactive) in the assay with HOP-92; 1.75 µM (inactive) with 786-0; 0.383 µM (active) with HL-60; 2.18 µM (inactive) in the assay with MCF7; 1.75 µM (inactive) in the assay on LOX IMVI; 2.5 µM (inactive) in the assay on SNB-19. For the same molecule, in the assay on CAKI-1, the GI50 was 1.14 µM (inactive).

`Cc1cc(OCc2nnc3n2S(=O)(=O)c2ccccc2N3C)ccc1Cl`: the GI50 with OVCAR-3 was 19.5 µM (inactive); in the assay with SW-620 it was > 100 µM (inactive); in the assay with SF-268 it was 16.3 µM (inactive); in the assay with SK-OV-3, 10.4 µM (inactive); in the assay with UACC-257, 61 µM (inactive); in the assay on NCI-H460 it was 39.9 µM (inactive). Also, the GI50 was 8 µM (inactive) with OVCAR-4; > 100 µM (inactive) with MDA-MB-435; > 100 µM (inactive) in the assay on HCC 2998; 18.5 µM (inactive) with T47D; 38.7 µM (inactive) in the assay on SK-MEL-5; 16.1 µM (inactive) in the assay with HOP-92. Further, the GI50 is 11.8 µM (inactive) in the assay with 786-0; 21 µM (inactive) in the assay on HL-60; 89.7 µM (inactive) in the assay on MCF7; 33.7 µM (inactive) in the assay on LOX IMVI; 19.3 µM (inactive) with SNB-19; 28.8 µM (inactive) in the assay on CAKI-1. Moreover, the GI50 in the assay with NCI-H522 is 6.79 µM (inactive).

Turning to `Cc1cc(-c2nc3cc(O)ccc3s2)ccc1N`, the GI50 was 23.5 µM (inactive) in the assay on OVCAR-3; 38 µM (inactive) with SW-620; 36.7 µM (inactive) with SF-268; 19.3 µM (inactive) in the assay on SK-OV-3; 35.1 µM (inactive) with UACC-257; 29 µM (inactive) with NCI-H460. Further, the GI50 with OVCAR-4 is 28 µM (inactive); with MDA-MB-435, 33.3 µM (inactive); in the assay on HCC 2998, 37.8 µM (inactive); in the assay with T47D, 22.9 µM (inactive); in the assay on SK-MEL-5 it was 22.5 µM (inactive); with HOP-92, 76.4 µM (inactive). Moreover, the GI50 with 786-0 is 37 µM (inactive); in the assay on HL-60, 32.1 µM (inactive); in the assay on MCF7, 17.6 µM (inactive); in the assay on LOX IMVI, 45 µM (inactive); with SNB-19 it was 33.7 µM (inactive); in the assay with CAKI-1 it was 34 µM (inactive). In addition, the GI50 with NCI-H522 was 31 µM (inactive).

Take `COc1cccc(CCNC(=O)Cc2ccccc2CCO)c1`: the GI50 in the assay on OVCAR-3 is > 100 µM (inactive); with SW-620, > 100 µM (inactive); in the assay with SF-268 it was > 100 µM (inactive); in the assay with SK-OV-3 it was > 100 µM (inactive); with RPMI-8226 it was > 10 µM (inactive); with UACC-257 it was > 100 µM (inactive). For the same molecule, the GI50 in the assay on NCI-H460, in the assay with OVCAR-4, in the assay on MDA-MB-435, with HCC 2998, in the assay on T47D and with SK-MEL-5 was > 100 µM (inactive) throughout. Besides, the GI50 in the assay on HOP-92, in the assay with 786-0, in the assay with HL-60, with MCF7, in the assay with SNB-19 and in the assay on CAKI-1 was > 100 µM (inactive) in each case. For the same molecule, in the assay with NCI-H522, the GI50 is > 100 µM (inactive).

Take `COc1ccc(-c2oc3c(OC)c(OC)cc(O)c3c(=O)c2OC)cc1`: the GI50 in the assay with OVCAR-3 is > 100 µM (inactive); in the assay with SW-620, > 100 µM (inactive); in the assay on SF-268, > 100 µM (inactive); in the assay with SK-OV-3 it was 36.5 µM (inactive); in the assay with UACC-257, > 100 µM (inactive); with NCI-H460 it was > 100 µM (inactive). Further, the GI50 with OVCAR-4 was > 100 µM (inactive); in the assay with MDA-MB-435 it was > 100 µM (inactive); in the assay with HCC 2998, > 100 µM (inactive); with T47D, > 100 µM (inactive); in the assay on SK-MEL-5, 91.6 µM (inactive); in the assay on HOP-92, 42.8 µM (inactive). In addition, the GI50 was > 100 µM (inactive) with 786-0; > 100 µM (inactive) with HL-60; > 100 µM (inactive) with MCF7; 65 µM (inactive) in the assay with LOX IMVI; > 100 µM (inactive) in the assay on SNB-19; > 100 µM (inactive) in the assay with CAKI-1. In the assay with NCI-H522, the GI50 was 54.8 µM (inactive).

As to `CCN(CCCl)c1cc(CN(C)C)cc(NC(=O)c2cc(C(=O)Nc3cc(CN(C)C)cc(N(CC)CCCl)c3)n(C)n2)c1`, the GI50 in the assay with SW-620 is 0.0962 µM (active); in the assay on SF-268, 0.065 µM (active); in the assay with SK-OV-3, 0.331 µM (active); in the assay on RPMI-8226, 0.24 µM (active); in the assay with UACC-257 it was 1.37 µM (inactive); in the assay on NCI-H460, < 0.01 µM (active). Moreover, the GI50 is 0.485 µM (active) in the assay with OVCAR-4; 0.213 µM (active) in the assay with MDA-MB-435; 0.755 µM (active) in the assay on HCC 2998; 0.508 µM (active) with T47D; 1.09 µM (active) in the assay on SK-MEL-5; 1.11 µM (active) with HOP-92. The GI50 with 786-0 was < 0.01 µM (active); with HL-60, 0.0115 µM (active); in the assay with MCF7, < 0.01 µM (active); in the assay with LOX IMVI, 0.0685 µM (active); in the assay on SNB-19, 0.0658 µM (active); with CAKI-1 it was 0.557 µM (active). Also, the GI50 in the assay with NCI-H522 was 0.115 µM (active).

Turning to `COc1ccc(C(=O)/C=C/c2ccc(OCC(=O)O)cc2)cc1`, the GI50 was 60.4 µM (inactive) in the assay with OVCAR-3; 41.5 µM (inactive) in the assay with SW-620; 43.9 µM (inactive) in the assay with SF-268; > 100 µM (inactive) with RPMI-8226; 32.8 µM (inactive) with MDA-MB-435; 27.7 µM (inactive) in the assay on HCC 2998. Also, the GI50 with T47D was 38.4 µM (inactive); in the assay with SK-MEL-5, > 100 µM (inactive); in the assay on HOP-92 it was 31.5 µM (inactive); in the assay on 786-0, 60.1 µM (inactive); in the assay with HL-60, > 100 µM (inactive); in the assay with MCF7 it was 42.8 µM (inactive). Further, the GI50 in the assay with LOX IMVI is 33.6 µM (inactive); in the assay on SNB-19, 98.6 µM (inactive); in the assay on CAKI-1 it was > 100 µM (inactive); in the assay on NCI-H522, 36 µM (inactive).

On to `COC1C=COC2(C)Oc3c(C)c(O)c4c(O)c(c(C5SCCS5)c(O)c4c3C2=O)NC(=O)/C(C)=C\C=CC(C)C(O)C(C)C(O)C(C)C(OC(C)=O)C1C` (stereo not given), for which the GI50 was 4.99 µM (inactive) in the assay on OVCAR-3; 5.42 µM (inactive) in the assay on SW-620; 11 µM (inactive) with SF-268; 14.1 µM (inactive) in the assay with SK-OV-3; 2.71 µM (inactive) in the assay on RPMI-8226; 4.7 µM (inactive) with UACC-257. Also, the GI50 is 4.26 µM (inactive) with NCI-H460; 7.33 µM (inactive) in the assay with OVCAR-4; 4.26 µM (inactive) in the assay on MDA-MB-435; 3.1 µM (inactive) in the assay with T47D; 7.89 µM (inactive) in the assay with SK-MEL-5; 10.1 µM (inactive) in the assay with HOP-92. Moreover, the GI50 was 8.87 µM (inactive) with 786-0; 4.02 µM (inactive) in the assay on HL-60; 4.24 µM (inactive) with MCF7; 2.18 µM (inactive) in the assay on LOX IMVI; 4.88 µM (inactive) with SNB-19; 9.91 µM (inactive) in the assay on CAKI-1. The GI50 in the assay on NCI-H522 is 4.75 µM (inactive).

Turning to `N=c1sc2ccccc2n1CC[S-].c1ccc2c(c1)sc1[n+]2CCS1`, the GI50 in the assay with OVCAR-3 was 19.3 µM (inactive); in the assay on SW-620, 17.1 µM (inactive); with SF-268, 20 µM (inactive); in the assay on SK-OV-3, 23.1 µM (inactive); in the assay on UACC-257, 17.8 µM (inactive); with NCI-H460 it was 14.4 µM (inactive). Further, the GI50 in the assay with OVCAR-4 was 16.4 µM (inactive); with MDA-MB-435, 15.7 µM (inactive); with HCC 2998, 17.1 µM (inactive); in the assay on T47D it was 23.6 µM (inactive); in the assay on SK-MEL-5, 14.8 µM (inactive); with HOP-92, 17 µM (inactive). Besides, the GI50 in the assay on 786-0 was 16.8 µM (inactive); in the assay on HL-60 it was 22.5 µM (inactive); in the assay with MCF7, 12.9 µM (inactive); in the assay on LOX IMVI, 16.9 µM (inactive); in the assay with SNB-19, 19.3 µM (inactive); in the assay on CAKI-1, 16.9 µM (inactive). Besides, the GI50 in the assay on NCI-H522 is 18 µM (inactive).

(Values after ChEMBL document CHEMBL1201862, “PubChem BioAssay data set” (2004).)
